Laboratory results as given in patent publication US8912144B2, “Method for treating stroke via administration of NEP1-40 and inosine” (Children's Medical Center Corporation, priority 2003, dated 2014).

System: corticospinal neurons (CSNs/CSMNs)
Assay: Laser-capture microdissection and Illumina microarray gene expression in corticospinal neurons contralateral to stroke
Assay type: in vivo, rat
Method: In a separate group of animals (n=20), layer V pyramidal cells of the sensorimotor cortex were retrogradely labeled by injecting Alexa-Fluor-488-conjugated cholera toxin B subunit (CTB; 300 U/μl in sterile saline) into the cervical spinal cord. For this, animals were anesthetized with a combination of ketamine and Domitor (medetomidine) and a laminectomy was performed at the cervical level of the spinal cord (C2-C4). CTB was stereotaxically delivered into four sites lateral to the corticospinal tract. Injections (1.3 μl) were spaced 1 mm apart on the rostro-caudal axis, and were made 0.5 mm to the left and right of the midline. After allowing two weeks for transport of the tracer, we performed either sham surgery with no treatment (n=6) or stroke surgery combined with saline (n=3) or inosine (n=4) treatment as described above. Seven days later, animals were decapitated under transient gas anesthesia, brains were removed and rinsed in cold RPMI medium, and a tissue block containing the sensorimotor cortex was dissected and placed in OCT Tissue Tek Medium (Sakura Finetek USA Inc., CA) on dry ice within five minutes of death. Ten μm sections were cut onto precleaned Gold Seal RITE-ON glass slides (Gold Seal Prod-ucts, Portsmouth, N.H.), placed on dry ice, and rapidly stored at −80° C.
Slide-mounted sections were thawed and dehydrated in RNAse-free ethanol gradients and xylene. Retro-gradely labeled, fluorescent cortical pyramidal cells in the undamaged hemisphere were individually captured using the Arcturus VERITAS system. ≧500 cells were collected from each animal and stored in Arcturus extraction buffer at −80° C. Total RNA was extracted from cells using the Micro-to-Midi TotalRNA Purification System (Invitrogen, Carlsbad Calif.) and double-amplified using the TargetAmp 2-Round Aminoallyl-aRNA Amplification kit 1.0 (Epicentre, Madison, Wis.). Amplified RNA was checked for average fragment length using the Agilent RNA 6000 Nano LabChip kit (Agilent Technologies, Santa Clara, Calif.) and then biotinylated and hybridized (1 μg) on Illumina RatRef-12 Expression BeadChip arrays (Illumina, San Diego Calif.), querying the expression of >22,000 RefSeq-curated rat transcripts. Results were obtained from a total of 15 samples representing 6 untreated controls, 4 animals with stroke treated with saline and 5 animals with stroke treated with inosine. Slides were processed and scanned with Illumina BeadStation platform according to the manufacturer protocol.
Raw data was analyzed using Bioconductor packages (www.bioconductor.org, (Gentleman et al., 2004)). Low level quality-control analysis was performed using inter-array Pearson correlation and clustering based on variance. Two arrays (1 saline and 1 inosine-treated) were outliers and were excluded from the analysis. Data was normalized using quantile normalization, and analysis of differential expression was performed using a linear model fitting (LIMMA package, (Smyth, 2005). Differentially expressed genes were classified according to gene ontology using Bioconductor packages and online tools (DAVID, http://david.abcc.ncifcrf.gov/). Pathway analysis was carried out using Ingenuity Pathway Analysis (Ingenuity Systems, www.ingenuity.com).

## OC[C@H]1O[C@@H](n2cnc3c(O)ncnc32)[C@H](O)[C@@H]1O [inosine]
ILMN_48507, inosine after stroke
  Signal Intensity, Sfrs10: 2745
ILMN_48587
  Fold-Induction Stroke, ino vs. cntrl, Scarb2: 0.71
ILMN_48587, inosine after stroke
  Signal Intensity, Scarb2: 569
ILMN_48688
  Fold-Induction Stroke, ino vs. cntrl, Sec6l1: 0.84
ILMN_48688, inosine after stroke
  Signal Intensity, Sec6l1: 587
ILMN_49300
  Fold-Induction Stroke, ino vs. cntrl, Ube4a: 0.58
ILMN_49300, inosine after stroke
  Signal Intensity, Ube4a: 1509
ILMN_49366
  Fold-Induction Stroke, ino vs. cntrl, LOC501195: 0.77
ILMN_49366, inosine after stroke
  Signal Intensity, LOC501195: 1460
ILMN_49569
  Fold-Induction Stroke, ino vs. cntrl, Kcnc2: 0.73
ILMN_49569, inosine after stroke
  Signal Intensity, Kcnc2: 4642
ILMN_49739
  Fold-Induction Stroke, ino vs. cntrl, Arfrp1: 0.93
ILMN_49739, inosine after stroke
  Signal Intensity, Arfrp1: 1014
ILMN_49819
  Fold-Induction Stroke, ino vs. cntrl, Dmp1: 0.38
ILMN_49819, inosine after stroke
  Signal Intensity, Dmp1: 267
ILMN_49884
  Fold-Induction Stroke, ino vs. cntrl, Ralbp1: 0.75
ILMN_49884, inosine after stroke
  Signal Intensity, Ralbp1: 1553
ILMN_50221
  Fold-Induction Stroke, ino vs. cntrl, Snx2: 0.66
ILMN_50221, inosine after stroke
  Signal Intensity, Snx2: 1681
ILMN_50467
  Fold-Induction Stroke, ino vs. cntrl, Rpn2: 0.71
ILMN_50467, inosine after stroke
  Signal Intensity, Rpn2: 835
ILMN_50573
  Fold-Induction Stroke, ino vs. cntrl, RAMP4: 0.75
ILMN_50573, inosine after stroke
  Signal Intensity, RAMP4: 544
ILMN_50686
  Fold-Induction Stroke, ino vs. cntrl, Cdc37l: 0.83
ILMN_50686, inosine after stroke
  Signal Intensity, Cdc37l: 625
ILMN_50922
  Fold-Induction Stroke, ino vs. cntrl, LOC498489: 0.49
ILMN_50922, inosine after stroke
  Signal Intensity, LOC498489: 603
ILMN_50967
  Fold-Induction Stroke, ino vs. cntrl, Ube2m: 0.59
ILMN_50967, inosine after stroke
  Signal Intensity, Ube2m: 332
ILMN_51108
  Fold-Induction Stroke, ino vs. cntrl, LOC499428: 0.50
ILMN_51108, inosine after stroke
  Signal Intensity, LOC499428: 678
ILMN_51249, LCM-captured CSMNs contralateral a stroke
  Fold-Induction, complement cascade gene C3: 2.17 fold
ILMN_51277, over and above inosine's effect of decreasing stroke-induced changes
  Fold-induction CSMNs: LOC305633, (P) Antxr2 protein: 3.13 fold
ILMN_51588
  Fold-Induction Stroke, ino vs. cntrl, Ik: 0.83
ILMN_51588, inosine after stroke
  Signal Intensity, Ik: 417
ILMN_51716
  Fold-Induction Stroke, ino vs. cntrl, LOC499767: 0.64
ILMN_51716, inosine after stroke
  Signal Intensity, LOC499767: 1723
ILMN_51717
  Fold-Induction Stroke, ino vs. cntrl, LOC497777: 0.58
ILMN_51717, inosine after stroke
  Signal Intensity, LOC497777: 577
ILMN_51868
  Fold-Induction Stroke, ino vs. cntrl, Tspan3: 0.47
ILMN_51868, inosine after stroke
  Signal Intensity, Tspan3: 3842
ILMN_51947
  Fold-Induction Stroke, ino vs. cntrl, LOC360807: 0.50
ILMN_51947, inosine after stroke
  Signal Intensity, LOC360807: 689
ILMN_51968
  Fold-Induction Stroke, ino vs. cntrl, LOC498931: 0.54
ILMN_51968, inosine after stroke
  Signal Intensity, LOC498931: 554
ILMN_51972
  Fold-Induction Stroke, ino vs. cntrl, LOC501619: 0.59
ILMN_51972, inosine after stroke
  Signal Intensity, LOC501619: 416
ILMN_52257
  Fold-Induction Stroke, ino vs. cntrl, Scd2: 0.42
ILMN_52257, inosine after stroke
  Signal Intensity, Scd2: 3009
ILMN_52577
  Fold-Induction Stroke, ino vs. cntrl, LOC317508: 0.58
ILMN_52577, inosine after stroke
  Signal Intensity, LOC317508: 493
ILMN_52827
  Fold-Induction Stroke, ino vs. cntrl, Nedd9: 0.73
ILMN_52827, inosine after stroke
  Signal Intensity, Nedd9: 550
ILMN_52968
  Fold-Induction Stroke, ino vs. cntrl, Atp6v1h: 0.62
ILMN_52968, inosine after stroke
  Signal Intensity, Atp6v1h: 525
ILMN_52985
  Fold-Induction Stroke, ino vs. cntrl, MGC94339: 0.70
ILMN_52985, inosine after stroke
  Signal Intensity, MGC94339: 547
ILMN_53046
  Fold-Induction Stroke, ino vs. cntrl, Ube2e3: 0.61
ILMN_53046, inosine after stroke
  Signal Intensity, Ube2e3: 434
ILMN_53076
  Fold-Induction Stroke, ino vs. cntrl, Arpc3: 0.68
ILMN_53076, inosine after stroke
  Signal Intensity, Arpc3: 423
ILMN_53085, over and above inosine's effect of decreasing stroke-induced changes
  Fold-induction CSMNs: Irf1: 1.83 fold
ILMN_53195
  Fold-Induction Stroke, ino vs. cntrl, LOC309362: 1.02
ILMN_53195, inosine after stroke
  Signal Intensity, LOC309362: 498
ILMN_53256
  Fold-Induction Stroke, ino vs. cntrl, Hat1: 0.69
ILMN_53256, inosine after stroke
  Signal Intensity, Hat1: 362
ILMN_53292
  Fold-Induction Stroke, ino vs. cntrl, LOC499978: 0.72
ILMN_53292, inosine after stroke
  Signal Intensity, LOC499978: 970
ILMN_53325, over and above inosine's effect of decreasing stroke-induced changes
  Fold-induction CSMNs: LOC498335, (P) Small inducible cytokine B13 precursor (CXCL13): 11.42 fold
ILMN_53575, over and above inosine's effect of decreasing stroke-induced changes
  Fold-induction CSMNs: Mt1a (Metallothionein): 2.69 fold
ILMN_53694
  Fold-Induction Stroke, ino vs. cntrl, Cnbp1: 0.76
ILMN_53694, inosine after stroke
  Signal Intensity, Cnbp1: 4491
ILMN_53763
  Fold-Induction Stroke, ino vs. cntrl, MGC94053: 0.59
